Here are results for five compounds from publication PMC7721954, “Preclinical comparison of four [^18F, ^natGa]rhPSMA-7 isomers: influence of the stereoconfiguration on pharmacokinetics” (EJNMMI Research, 2020).

For series [1], the system named is LNCaP cells. The conditions noted are these: 1 h, 37 °C, percentage of reference ligand ([125I]I-BA)KuE, n = 3; cited from earlier work.
For series [2] the following is noted: n-octanol/PBS pH 7.4, cited from earlier work.
The target in series [3] is T1, human serum albumin (Homo sapiens, UniProt P02768).
T1 construct: purchased
T1 sequence (P02768 25-609): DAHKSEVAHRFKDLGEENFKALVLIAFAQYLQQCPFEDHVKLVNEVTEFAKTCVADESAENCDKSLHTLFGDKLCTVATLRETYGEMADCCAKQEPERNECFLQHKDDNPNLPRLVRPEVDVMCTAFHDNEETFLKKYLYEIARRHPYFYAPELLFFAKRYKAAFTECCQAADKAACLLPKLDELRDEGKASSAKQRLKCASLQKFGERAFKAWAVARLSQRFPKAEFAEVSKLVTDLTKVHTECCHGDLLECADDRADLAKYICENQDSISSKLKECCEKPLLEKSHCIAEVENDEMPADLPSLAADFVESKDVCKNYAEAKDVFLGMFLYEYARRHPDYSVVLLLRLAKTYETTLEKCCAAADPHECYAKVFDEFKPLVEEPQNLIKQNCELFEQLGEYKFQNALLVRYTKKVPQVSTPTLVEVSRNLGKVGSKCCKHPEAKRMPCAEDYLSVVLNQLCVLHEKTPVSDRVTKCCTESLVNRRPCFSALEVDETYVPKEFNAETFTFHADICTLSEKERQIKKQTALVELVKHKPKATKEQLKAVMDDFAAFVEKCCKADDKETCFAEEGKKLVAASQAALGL
The conditions noted are these: Chiralpak HSA column, cited from earlier work.

Series [4] deals with T2, PSMA (Homo sapiens, UniProt Q04609).
T2 construct: host or cells: LNCaP cells
T2 sequence (Q04609 whole entry): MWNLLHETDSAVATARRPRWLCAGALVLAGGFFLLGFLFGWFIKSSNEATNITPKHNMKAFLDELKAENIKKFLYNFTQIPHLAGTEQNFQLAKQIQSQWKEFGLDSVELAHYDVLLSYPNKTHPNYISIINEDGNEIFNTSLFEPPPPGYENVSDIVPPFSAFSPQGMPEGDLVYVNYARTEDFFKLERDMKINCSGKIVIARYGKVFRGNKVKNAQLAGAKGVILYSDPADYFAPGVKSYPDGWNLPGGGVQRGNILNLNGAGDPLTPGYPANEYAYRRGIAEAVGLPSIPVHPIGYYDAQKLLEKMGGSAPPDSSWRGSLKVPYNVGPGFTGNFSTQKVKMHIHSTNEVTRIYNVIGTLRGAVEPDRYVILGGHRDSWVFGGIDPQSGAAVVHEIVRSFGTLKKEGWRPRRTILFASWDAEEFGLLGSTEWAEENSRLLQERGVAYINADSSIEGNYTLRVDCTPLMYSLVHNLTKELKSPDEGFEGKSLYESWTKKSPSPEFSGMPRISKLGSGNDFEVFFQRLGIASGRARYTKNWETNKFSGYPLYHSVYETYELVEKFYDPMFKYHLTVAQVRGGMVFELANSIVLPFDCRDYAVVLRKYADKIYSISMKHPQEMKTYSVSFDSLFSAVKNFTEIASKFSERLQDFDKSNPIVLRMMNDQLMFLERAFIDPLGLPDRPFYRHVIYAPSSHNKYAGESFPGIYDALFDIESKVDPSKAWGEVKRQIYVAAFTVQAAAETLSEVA
Put plainly: Competitive binding (IC50) on LNCaP cells vs ([125I]I-BA)KuE. As to conditions: ratio of IC50 values. On the procedure:
(§1) Competitive binding studies were determined on LNCaP cells (1.5 × 10^5 cells in 1 mL/well) after incubation at 4 °C for 1 h, using (((S)-1-carboxy-5-(4-([^125I]iodo)benzamido)pentyl)carbamoyl)-L-glutamic acid (([^125I]I-BA)KuE; 0.2 nM/well) as reference radioligand (n = 5–9). Internalization studies of the radiolabeled ligands (0.5 nM/well) were performed on LNCaP cells (1.25 × 10^5 cells in 1 mL/well) at 37 °C for 1 h and accompanied by ([^125I]I-BA)KuE (0.2 nM/well), as reference. Data were corrected for non-specific binding and normalized to the specific internalization observed for the reference (n = 3–6). A detailed description of the experimental procedures was previously published.

In series [5] the test system is LNCaP cells. The series is described as follows: Internalization into LNCaP cells relative to ([125I]I-BA)KuE. The series is classed as cell-based. The conditions noted are these: 1 h, 37 °C, percentage of reference ligand ([125I]I-BA)KuE, n = 3-6. As for the experimental part:
as §1

The target in series [6] is T1, human serum albumin. The series is described as follows: Human serum albumin binding on Chiralpak HSA column. The series is classed as in vitro ADME. On the procedure:
Approximately 1 MBq of the ^18F-ligand was dissolved in 1 mL of a 1:1 mixture (v/v) of phosphate-buffered saline (PBS, pH 7.4) and n-octanol (n = 18–23). After vigorous mixing of the suspension for 3 min, the vial was centrifuged at 15,000 × g for 3 min and 100 μL aliquots of both layers were measured in a γ-counter. HSA binding of ^19F-^natGa-rhPSMA ligands was determined according to a previously published procedure.

The test system of series [7] is LNCaP tumor-bearing male CB-17 SCID mice. Put plainly: Biodistribution 1 h p.i. The format is in vivo. On the procedure:
(§2) LNCaP tumor xenografts were established in 6–8 weeks old male CB-17 SCID mice as described previously.
(§3) 1–3 MBq (0.2 nmol) of the [^18F, ^natGa]rhPSMA inhibitors were injected into the tail vein of LNCaP tumor-bearing male CB-17 SCID mice that were sacrificed 1 h post injection (p.i.) (n = 4 for 7.1, n = 5 for 7.2, n = 4 for 7.3, n = 5 for 7.4 and n = 3 for 7). Selected organs were removed, weighed, and measured in a γ-counter. For competition studies, 8 mg/kg of 2-PMPA (2-(Phosphonomethyl)-pentandioic acid) were co-administered (n = 3).

For series [8] the test system is unchanged. Put plainly: Biodistribution 1 h p.i. with competition (co-injection of 2-PMPA). The format is in vivo. As to conditions: co-injected with 2-PMPA (8 mg/kg), n = 3. As for the experimental part:
as §2, §3

The subject of a further series is LNCaP tumor-bearing mice. Put plainly: Differential uptake and excretion pattern of isomers after injection of the diastereomeric mixture (radio-HPLC). The format is in vivo. The conditions noted are these: blood, liver, kidney and tumor, 30 min p.i., n = 4. On the procedure: With the intention to identify even marginal differences in the in vivo behavior, all four [^18F, ^natGa]rhPSMA-7 isomers were co-evaluated in one single tumor-bearing mouse in order to quantify the differential uptake and excretion pattern of each isomer. For this purpose, the diastereomeric mixture [^18F, ^natGa]rhPSMA-7 was produced in high molar activity (AM) of 247–349 GBq/µmol (at end of synthesis) and the abundance of each isomer was determined by radio-HPLC. Mice (n = 4) were injected with [^18F, ^natGa]rhPSMA-7 (180–280 MBq, 0.9–1.0 nmol) and left under anesthesia. After 30 min p.i., they were sacrificed and urine, blood, liver, kidneys and tumor were collected and processed. Radioactivity was extracted from solid tissues by means of a Potter–Elvehjem tissue grinder (n = 1) or a ball mill (n = 3) and separated from the protein fraction by subsequent cartridge-based solid-phase extraction (SPE). Blood samples were diluted, centrifuged and the supernatant was purified by SPE (see supporting information). Urine and extracts from tissue samples were then analyzed by radio-HPLC to quantify the fraction of each isomer in each sample. Finally, the relative percentage difference between the abundance of each isomer in the injected diastereomeric mixture (values taken from the quality control) and the abundance of the respective isomer in each analyzed tissue or body fluid was calculated. […] PeakFit allows for automated nonlinear separation, analysis and quantification of HPLC elution profiles by deconvolution procedures that uses a Gaussian response function with a Fourier deconvolution/filtering algorithm (see Additional file 1: Fig. 7).
Extraction via the Potter-Elvehjem Tissue Grinder. Tumor and kidneys were separately homogenized in the tissue homogeniser with 1 mL of extraction buffer (850 μL 1 M HEPES pH 7.4, 100 μL 20 mM PMPA and 100 μL 1 M NaCl) for 30 min. The resulting homogenate was collected and centrifuged at 13000×g for 5 min. Subsequently, the supernatant was collected, centrifuged again (13000×g, 5 min) and loaded on a Strata X cartridge (33 μm Polymeric Reversed Phase 500 mg) preconditioned with 5 mL MeOH, followed by 5 mL H2O. After washing with 5 mL H2O, the cartridge was eluted with a 3:2 mixture (v/v) of MeCN in H2O supplemented with 1% TFA. For radio-HPLC analysis the eluates were diluted with water.
Extraction via the MM-400 Ball Mill. The samples (tumor, kidney, liver) were separately homogenized in a 2 mL tube together with 3 grinding balls (3 mm diameter) and 1 mL of extraction buffer (850 μL 1 M HEPES pH 7.4, 100 μL 20 mM PMPA and 100 μL 1 M NaCl) for 10 min at 30 Hz. The homogenate was centrifuged at 13 000×g for 5 min and the supernatant was collected. […]

The target in series [9] is T2, PSMA. As to conditions: LNCaP cells, 1 h, 4 °C, n = 3; read-out: IC50 (binding affinity); cited from earlier work.

SMILES strings stand for the structures. Where two headings read alike, the source gives them in different places. Where only a bound is given, the exact number is not on record here.

`O=C(O)CC[C@H](NC(=O)N[C@@H](CCCCNC(=O)[C@H](Cc1ccc2ccccc2c1)NC(=O)c1ccc(CNC(=O)[C@H](CCC(=O)O)NC(=O)[C@H](CCC(=O)O)NC(=O)c2ccc([18F])nc2)cc1)C(=O)O)C(=O)O` [[^18/19F]PSMA-1007]: the “Internalization (internalized activity)” value with LNCaP cells [1] is 118 ± 5 % of reference. The “Lipophilicity Log D” value in [2] (listed as [^18F]PSMA-1007) was -1.6 ± 0.02. The HSA-binding is 98% at human serum albumin [3] and > 96% on human serum albumin [3] (listed as [^19F]PSMA-1007).
On to `O=C(O)CC[C@H](NC(=O)N[C@@H](CCCCNC(=O)c1ccc(F)nc1)C(=O)O)C(=O)O` [[^18/19F]DCFPyL], for which the “Internalization (internalized activity)” value with LNCaP cells [1] was 118 ± 4 % of reference. The “Lipophilicity Log D” value in [2] (listed as [^18F]DCFPyL) is -3.4 ± 0.03. Besides, the HSA-binding on human serum albumin [3] is listed as 14%.
On to `CC(C)(C)[Si]([18F])(c1ccc(C(=O)NC[C@@H](NC(=O)CC[C@H](C(=O)O)N2CCN(CC(=O)[O-])CCN(CC(=O)[O-])CCN(CC(=O)[O-])CC2)C(=O)N[C@H](CCCCNC(=O)CCC(=O)NCCC[C@@H](NC(=O)CC[C@H](NC(=O)N[C@@H](CCC(=O)O)C(=O)O)C(=O)O)C(=O)O)C(=O)O)cc1)C(C)(C)C.[Ga+3]` [[^18F, ^natGa]rhPSMA-7.1], for which, at PSMA [4], the “Affinity fold higher than that of [19F]DCFPyL” value came out at 1.8 fold. In addition, the “Internalization (internalized activity)” value with LNCaP cells [5] is reported as 70 ± 5 % of reference. For the same compound, the HSA-binding on human serum albumin [6] is on record as 98%. In series [7], the “Biodistribution Adrenals” value was found to be 2.0 ± 0.25 % ID/g, the “Biodistribution Blood” value came to 0.53 ± 0.13 % ID/g, the “Biodistribution Bone” value is listed as 0.50 ± 0.31 % ID/g and the “Biodistribution Heart” value was 0.53 ± 0.03 % ID/g. In series [7], the “Biodistribution Intestine” value was determined as 0.30 ± 0.16 % ID/g, the “Biodistribution Kidneys” value is 220 ± 24.8 % ID/g, the “Biodistribution Liver” value stood at 0.75 ± 0.62 % ID/g and the “Biodistribution Lung” value came to 1.1 ± 0.21 % ID/g. In addition, in series [7], the “Biodistribution Muscle” value came out at 0.32 ± 0.30 % ID/g, the “Biodistribution Pancreas” value came out at 0.45 ± 0.12 % ID/g, the “Biodistribution Spleen” value is recorded as 20.0 ± 4.2 % ID/g and the “Biodistribution Stomach” value is 0.28 ± 0.17 % ID/g. Besides, in series [7], the “Biodistribution Tumor” value was 14.1 ± 4.1 % ID/g. In series [8], the “Biodistribution Adrenals” value amounted to 0.003 ± 0.004 % ID/g, the “Biodistribution Blood” value worked out at 0.86 ± 0.40 % ID/g, the “Biodistribution Bone” value turned out to be 0.33 ± 0.24 % ID/g and the “Biodistribution Heart” value is 0.37 ± 0.16 % ID/g. Also, in series [8], the “Biodistribution Intestine” value turned out to be 0.66 ± 0.32 % ID/g, the “Biodistribution Kidneys” value was 10.9 ± 2.5 % ID/g, the “Biodistribution Liver” value worked out at 0.43 ± 0.07 % ID/g and the “Biodistribution Lung” value was 0.85 ± 0.29 % ID/g. Also, in series [8], the “Biodistribution Muscle” value is given as 0.17 ± 0.15 % ID/g, the “Biodistribution Pancreas” value stood at 0.16 ± 0.10 % ID/g, the “Biodistribution Spleen” value is reported as 0.21 ± 0.08 % ID/g and the “Biodistribution Stomach” value worked out at 0.97 ± 0.81 % ID/g. Besides, the “Biodistribution Tumor” value in [8] is on record as 0.94 ± 0.22 % ID/g. Besides, the “Abundance (enrichment) of the isomer in tissue compared to time point of injection” value with LNCaP tumor-bearing mice is on record as “higher”.
By IC50 is commonly meant the concentration needed to halve the response being measured. `O=C(O)CC[C@H](NC(=O)N[C@@H](CCCCNC(=O)[C@H](Cc1ccc2ccccc2c1)NC(=O)c1ccc(CNC(=O)[C@H](CCC(=O)O)NC(=O)[C@H](CCC(=O)O)NC(=O)c2ccc(F)nc2)cc1)C(=O)O)C(=O)O` [[^18/19F]PSMA-1007]: the half-maximal inhibitory concentration (IC50) at PSMA [9] was 4.2 ± 0.5 nM.
With `CC(C)(C)[Si]([18F])(c1ccc(C(=O)NC[C@H](NC(=O)CC[C@@H](C(=O)O)N2CCN(CC(=O)[O-])CCN(CC(=O)[O-])CCN(CC(=O)[O-])CC2)C(=O)N[C@H](CCCCNC(=O)CCC(=O)NCCC[C@@H](NC(=O)CC[C@H](NC(=O)N[C@@H](CCC(=O)O)C(=O)O)C(=O)O)C(=O)O)C(=O)O)cc1)C(C)(C)C.[Ga+3]` [[^18F, ^natGa]rhPSMA-7.4], the “Internalization (internalized activity)” value in the series with LNCaP cells [5] is listed as 207 ± 4 % of reference. Further, on human serum albumin [6], the HSA-binding turned out to be 97%. In addition, in [7], the “Biodistribution Adrenals” value was found to be 3.57 ± 2.38 % ID/g, the “Biodistribution Blood” value is 1.15 ± 0.30 % ID/g, the “Biodistribution Bone” value came to 0.62 ± 0.30 % ID/g and the “Biodistribution Heart” value came out at 0.71 ± 0.26 % ID/g. Besides, in series [7], the “Biodistribution Intestine” value was found to be 0.37 ± 0.09 % ID/g, the “Biodistribution Kidneys” value stood at 153 ± 80.3 % ID/g, the “Biodistribution Liver” value amounted to 0.69 ± 0.20 % ID/g and the “Biodistribution Lung” value is given as 1.59 ± 0.61 % ID/g. Besides, in series [7], the “Biodistribution Muscle” value is recorded as 0.31 ± 0.08 % ID/g, the “Biodistribution Pancreas” value is reported as 0.50 ± 0.30 % ID/g, the “Biodistribution Spleen” value was 18.4 ± 9.77 % ID/g and the “Biodistribution Stomach” value is 0.25 ± 0.06 % ID/g. For the same compound, the “Biodistribution Tumor” value in series [7] is 18.9 ± 3.27 % ID/g. In series [8], the “Biodistribution Adrenals” value was determined as 0.03 ± 0.04 % ID/g, the “Biodistribution Blood” value turned out to be 0.82 ± 0.17 % ID/g, the “Biodistribution Bone” value is 1.0 ± 0.8 % ID/g and the “Biodistribution Heart” value worked out at 0.37 ± 0.05 % ID/g. Also, in series [8], the “Biodistribution Intestine” value is reported as 0.36 ± 0.08 % ID/g, the “Biodistribution Kidneys” value came out at 7.2 ± 2.4 % ID/g, the “Biodistribution Liver” value worked out at 0.48 ± 0.14 % ID/g and the “Biodistribution Lung” value was determined as 0.74 ± 0.14 % ID/g. In series [8], the “Biodistribution Muscle” value is on record as 0.20 ± 0.05 % ID/g, the “Biodistribution Pancreas” value was found to be 0.18 ± 0.09 % ID/g, the “Biodistribution Spleen” value came to 0.28 ± 0.15 % ID/g and the “Biodistribution Stomach” value was found to be 0.20 ± 0.07 % ID/g. Besides, the “Biodistribution Tumor” value in [8] was 0.99 ± 0.19 % ID/g. In the series with LNCaP tumor-bearing mice, the “Abundance (enrichment) of the isomer in tissue compared to time point of injection” value is “lowest enrichment in blood, liver and kidney, but also the lowest uptake by tumors”.
